Key:
[1] = AUC in Sprague-Dawley rat at 10 mg/kg, po measured within 6 hrs after post-dosing by LC/MS/MS analysis; format: ADME, organism-based; set-up: time < 6 hr, dose 10 mg/kg, route oral; details: plasma
[2] = target: T1, Disintegrin and metalloproteinase domain-containing protein 17 (Homo sapiens, UniProt P78536); assay: Inhibition of TACE
[3] = Plasma concentration in Sprague-Dawley rat at 10 mg/kg, po measured after 6 hrs by LC/MS/MS analysis; format: ADME, organism-based; set-up: dose 10 mg/kg, route oral
Interstitial collagenase = target: T2, Interstitial collagenase (Homo sapiens, UniProt P03956); assay: Inhibition of MMP1
T2 sequence (P03956 whole entry): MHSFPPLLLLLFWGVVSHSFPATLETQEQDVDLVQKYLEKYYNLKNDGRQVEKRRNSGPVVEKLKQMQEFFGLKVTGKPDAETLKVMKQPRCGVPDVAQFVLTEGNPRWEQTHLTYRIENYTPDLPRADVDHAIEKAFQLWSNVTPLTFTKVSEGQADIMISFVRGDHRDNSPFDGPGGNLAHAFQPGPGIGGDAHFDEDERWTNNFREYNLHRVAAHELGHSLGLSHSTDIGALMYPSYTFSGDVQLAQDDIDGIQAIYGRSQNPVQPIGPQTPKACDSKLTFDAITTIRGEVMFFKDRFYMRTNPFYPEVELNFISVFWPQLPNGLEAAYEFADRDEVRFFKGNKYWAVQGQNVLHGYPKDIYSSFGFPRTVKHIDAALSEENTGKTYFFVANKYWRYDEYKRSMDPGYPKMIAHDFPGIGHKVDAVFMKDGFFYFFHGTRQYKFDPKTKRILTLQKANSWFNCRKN

Collagenase 3 = Collagenase 3 (Homo sapiens, UniProt P45452); assay: Inhibition of MMP13
Stromelysin-1 = Stromelysin-1 (Homo sapiens, UniProt P08254); assay: Inhibition of MMP3
Stromelysin-1, sequence (P08254 whole entry): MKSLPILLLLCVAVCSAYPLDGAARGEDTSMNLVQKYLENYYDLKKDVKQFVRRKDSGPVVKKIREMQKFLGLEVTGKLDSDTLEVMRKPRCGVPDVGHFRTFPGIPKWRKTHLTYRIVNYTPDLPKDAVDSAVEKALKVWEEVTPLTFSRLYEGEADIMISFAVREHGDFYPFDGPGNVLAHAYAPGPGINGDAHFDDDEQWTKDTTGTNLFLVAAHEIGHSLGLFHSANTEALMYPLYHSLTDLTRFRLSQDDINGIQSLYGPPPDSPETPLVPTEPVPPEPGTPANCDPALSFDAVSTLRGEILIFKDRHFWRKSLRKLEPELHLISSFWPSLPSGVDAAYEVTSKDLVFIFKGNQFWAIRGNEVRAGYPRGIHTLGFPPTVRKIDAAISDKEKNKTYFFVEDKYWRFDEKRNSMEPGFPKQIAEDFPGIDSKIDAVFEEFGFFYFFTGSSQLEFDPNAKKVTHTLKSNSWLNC

[4] = target: Matrix metalloproteinase-14 (Homo sapiens, UniProt P50281); assay: Inhibition of MMP14
[5] = target: 72 kDa type IV collagenase (Homo sapiens, UniProt P08253); assay: Inhibition of MMP2
72 kDa type IV collagenase, sequence (P08253 whole entry, the tested form may be a part): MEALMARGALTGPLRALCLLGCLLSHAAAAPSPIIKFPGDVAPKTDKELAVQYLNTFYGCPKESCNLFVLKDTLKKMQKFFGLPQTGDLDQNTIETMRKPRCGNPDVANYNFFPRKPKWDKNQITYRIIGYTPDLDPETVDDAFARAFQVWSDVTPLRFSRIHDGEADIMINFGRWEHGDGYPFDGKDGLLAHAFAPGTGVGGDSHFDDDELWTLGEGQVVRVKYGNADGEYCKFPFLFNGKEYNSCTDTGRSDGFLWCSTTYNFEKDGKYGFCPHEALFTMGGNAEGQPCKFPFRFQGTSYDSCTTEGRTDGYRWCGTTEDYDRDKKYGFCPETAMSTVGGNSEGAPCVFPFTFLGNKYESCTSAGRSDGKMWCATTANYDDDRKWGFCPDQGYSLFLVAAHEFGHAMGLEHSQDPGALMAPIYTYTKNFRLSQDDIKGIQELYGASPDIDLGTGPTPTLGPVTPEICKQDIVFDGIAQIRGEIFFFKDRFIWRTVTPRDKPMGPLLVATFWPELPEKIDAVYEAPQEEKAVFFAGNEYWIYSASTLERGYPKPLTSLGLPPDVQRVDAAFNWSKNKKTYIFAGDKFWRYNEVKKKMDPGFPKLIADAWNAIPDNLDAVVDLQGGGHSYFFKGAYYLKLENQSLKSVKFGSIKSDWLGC

[6] = target: T3, Disintegrin and metalloproteinase domain-containing protein 10 (Homo sapiens, UniProt O14672); assay: Inhibition of ADAM10
T3 sequence (O14672 whole entry): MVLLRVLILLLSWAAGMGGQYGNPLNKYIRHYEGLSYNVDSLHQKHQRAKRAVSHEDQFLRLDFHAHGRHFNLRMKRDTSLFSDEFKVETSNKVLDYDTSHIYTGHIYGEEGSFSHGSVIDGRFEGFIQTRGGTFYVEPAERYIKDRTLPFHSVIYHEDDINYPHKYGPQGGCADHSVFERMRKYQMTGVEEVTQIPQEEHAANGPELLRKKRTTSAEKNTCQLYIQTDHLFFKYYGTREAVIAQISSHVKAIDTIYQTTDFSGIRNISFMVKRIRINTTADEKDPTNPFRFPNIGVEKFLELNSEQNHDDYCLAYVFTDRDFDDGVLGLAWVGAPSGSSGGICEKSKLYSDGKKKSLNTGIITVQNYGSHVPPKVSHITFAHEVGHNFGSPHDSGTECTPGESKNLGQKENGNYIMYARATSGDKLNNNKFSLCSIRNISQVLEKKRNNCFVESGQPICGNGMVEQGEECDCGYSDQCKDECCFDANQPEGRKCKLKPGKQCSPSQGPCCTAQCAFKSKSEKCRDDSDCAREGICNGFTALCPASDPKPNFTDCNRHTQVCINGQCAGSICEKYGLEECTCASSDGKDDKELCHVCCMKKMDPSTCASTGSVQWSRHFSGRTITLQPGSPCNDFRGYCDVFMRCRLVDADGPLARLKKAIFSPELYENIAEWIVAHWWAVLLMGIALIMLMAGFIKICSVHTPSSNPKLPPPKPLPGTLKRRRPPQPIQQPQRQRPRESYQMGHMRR

[7] = target: Matrix metalloproteinase-9 (Homo sapiens, UniProt P14780); assay: Inhibition of MMP9
Matrix metalloproteinase-9, sequence (P14780 whole entry): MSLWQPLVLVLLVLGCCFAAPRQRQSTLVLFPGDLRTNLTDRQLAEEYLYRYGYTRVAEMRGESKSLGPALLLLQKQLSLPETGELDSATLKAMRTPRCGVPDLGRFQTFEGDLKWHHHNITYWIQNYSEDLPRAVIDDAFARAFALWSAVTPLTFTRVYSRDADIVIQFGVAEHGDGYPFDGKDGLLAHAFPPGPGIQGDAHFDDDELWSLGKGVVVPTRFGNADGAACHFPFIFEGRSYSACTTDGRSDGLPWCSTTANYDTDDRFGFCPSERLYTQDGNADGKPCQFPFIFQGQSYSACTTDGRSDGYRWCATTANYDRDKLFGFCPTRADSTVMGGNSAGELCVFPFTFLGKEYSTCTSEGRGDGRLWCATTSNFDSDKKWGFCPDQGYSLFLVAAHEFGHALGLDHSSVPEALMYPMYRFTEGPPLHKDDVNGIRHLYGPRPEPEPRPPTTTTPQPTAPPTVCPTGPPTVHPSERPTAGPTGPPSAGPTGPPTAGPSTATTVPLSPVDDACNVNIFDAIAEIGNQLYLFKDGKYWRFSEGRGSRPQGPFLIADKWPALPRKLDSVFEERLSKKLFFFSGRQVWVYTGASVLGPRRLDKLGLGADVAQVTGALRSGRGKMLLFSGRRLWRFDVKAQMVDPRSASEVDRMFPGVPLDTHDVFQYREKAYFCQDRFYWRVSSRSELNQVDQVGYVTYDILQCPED

Matrilysin = target: T4, Matrilysin (Homo sapiens, UniProt P09237); assay: Inhibition of MMP7
T4 sequence (P09237 whole entry): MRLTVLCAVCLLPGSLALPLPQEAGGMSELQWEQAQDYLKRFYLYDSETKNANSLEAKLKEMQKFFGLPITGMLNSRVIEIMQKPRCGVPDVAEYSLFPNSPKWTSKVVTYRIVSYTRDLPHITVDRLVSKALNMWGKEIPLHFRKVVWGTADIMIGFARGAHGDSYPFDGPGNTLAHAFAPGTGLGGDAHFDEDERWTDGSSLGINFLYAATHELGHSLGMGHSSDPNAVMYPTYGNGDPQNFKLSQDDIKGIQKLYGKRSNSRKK

[8] = target: T1, Disintegrin and metalloproteinase domain-containing protein 17; assay: Inhibition of TACE by cell based assay

T1 sequence (P78536 whole entry, the tested form may be a part): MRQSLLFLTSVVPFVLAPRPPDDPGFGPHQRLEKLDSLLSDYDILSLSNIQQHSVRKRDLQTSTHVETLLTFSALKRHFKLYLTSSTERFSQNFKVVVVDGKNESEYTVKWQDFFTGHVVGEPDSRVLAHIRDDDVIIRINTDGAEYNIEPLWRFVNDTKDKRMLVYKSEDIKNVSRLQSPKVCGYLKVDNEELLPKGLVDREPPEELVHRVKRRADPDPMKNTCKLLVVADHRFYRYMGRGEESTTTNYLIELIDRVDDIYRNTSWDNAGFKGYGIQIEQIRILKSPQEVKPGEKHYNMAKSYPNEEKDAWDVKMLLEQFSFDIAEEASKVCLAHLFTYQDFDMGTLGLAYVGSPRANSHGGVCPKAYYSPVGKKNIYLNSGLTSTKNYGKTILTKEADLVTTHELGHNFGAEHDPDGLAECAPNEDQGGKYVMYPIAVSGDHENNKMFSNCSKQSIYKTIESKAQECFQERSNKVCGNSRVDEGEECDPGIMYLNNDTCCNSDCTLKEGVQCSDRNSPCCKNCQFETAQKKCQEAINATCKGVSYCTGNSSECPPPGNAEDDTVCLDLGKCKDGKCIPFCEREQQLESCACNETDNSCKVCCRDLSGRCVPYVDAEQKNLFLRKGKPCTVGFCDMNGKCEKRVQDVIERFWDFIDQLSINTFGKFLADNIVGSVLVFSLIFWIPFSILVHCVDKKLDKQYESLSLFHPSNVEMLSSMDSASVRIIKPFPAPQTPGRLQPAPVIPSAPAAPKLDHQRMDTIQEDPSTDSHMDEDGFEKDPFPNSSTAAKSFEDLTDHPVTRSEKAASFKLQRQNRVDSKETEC

C[C@@H](NC(=O)[C@H](O)[C@@H](O)C(=O)N1CCC[C@@H]1c1cccc(Cl)c1)c1ccc(-n2cccn2)cc1
AUC at 6 h [1]: 2.95 µM·h
Ki [2]: 0.0008 µM
concentration at 6 h [3]: 0.096 µM
Ki (Interstitial collagenase): > 100 µM

C[C@@H](NC(=O)[C@H](O)[C@@H](O)C(=O)N1CCC[C@@H]1c1csc(NC2CC2)n1)c1ccc(-n2cccn2)cc1
Ki (Collagenase 3): > 40 µM
Ki (Stromelysin-1): > 40 µM
Ki [4]: > 40 µM
Ki [5]: 20.5 µM
AUC at 6 h [1]: 134 µM·h
Ki [2]: 0.005 µM
Ki [6]: 1.35 µM
concentration at 6 h [3]: 17.6 µM
Ki [7]: > 40 µM
Ki (Interstitial collagenase): > 40 µM
Ki (Matrilysin): 18.1 µM
IC50 [8]: 3.02 µM

CNc1nc([C@H]2c3ccccc3CN2C(=O)[C@H](O)[C@@H](O)C(=O)N[C@H](C)c2ccc(-n3cccn3)cc2)cs1
Ki (Collagenase 3): 14.1 µM
Ki (Stromelysin-1): > 40 µM
Ki [4]: 16.4 µM
Ki [5]: > 40 µM
AUC at 6 h [1]: 1.13 µM·h
Ki [2]: 0.001 µM
Ki [6]: 0.12 µM
Ki [7]: 10.1 µM
Ki (Interstitial collagenase): > 40 µM
Ki (Matrilysin): 13.5 µM
IC50 [8]: 0.416 µM

From ChEMBL document CHEMBL1770127, “2-(2-Aminothiazol-4-yl)pyrrolidine-based tartrate diamides as potent, selective and orally bioavailable TACE inhibitors” (Bioorg Med Chem Lett, 2011)
